Source: US5480902A, “Thienylpyrrole fungicidal agents” (American Cyanamid Company, priority 1993, dated 1996)

Assays:
Pyricularia oryzae = assay type: in vivo; details: 400 ppm; sprayed on host plants before inoculation
[1] = system: Puccinia recondita f. sp. tritici; test: In vivo fungicidal activity on host plants, Wheat Leaf Rust (WLR); details: 400 ppm; sprayed on host plants before inoculation
Rhizoctonia solani = test: In vitro fungicidal activity, growth inhibition of ground fungal mycelia (RHIZSO); assay type: cell-based; details: 3-4 days at 21° C., averaged when more than one test, read-out: Growth inhibition rating, RHIZSO
Procedure: (§1) Test compounds are dissolved or suspended in acetone and dispersed into cell well plates containing a suspension of ground fungal mycelia in a nutrient broth. Assay plates are incubated for 3-4 days at 21° C. Growth inhibition is measured visually and is rated using the following scale:
(§2) Assay fungi include the plant pathogens, Pythium ultimum (Pythul); Rhizoctonia solani (Rhizso); Fusarium oxysporum f. sp. cucumerinum (Fusoxc); and Pseudocercosporella herpotrichoides (Psdche).
(§3) When more than one test is run, the data are averaged.

Cercospora beticola = test: In vivo fungicidal activity on host plants, Sugar Beet Cercospora (SBC); details: 400 ppm; sprayed on host plants before inoculation; also: ranges in brackets are in %
Pythium ultimum = test: In vitro fungicidal activity, growth inhibition of ground fungal mycelia (PYTHUL); assay type: cell-based; details: Globisporangium ultimum, 3-4 days at 21° C., averaged when more than one test, read-out: Growth inhibition rating, PYTHUL (converted)
Procedure: as §1, §2, §3

Botrytis cinerea = test: In vivo fungicidal activity on host plants, Pepper Botrytis (PB); details: 400 ppm; sprayed on host plants before inoculation
[2] = system: Pseudocercosporella herpotrichoides; test: In vitro fungicidal activity, growth inhibition of ground fungal mycelia (PSDCHE); assay type: cell-based; details: Oculimacula yallundae, 3-4 days at 21° C., averaged when more than one test, read-out: Growth inhibition rating, PSDCHE (converted)
Procedure: as §1, §2, §3

Venturia inaegualis = test: In vivo fungicidal activity on host plants, Apple Scab (AS); details: 400 ppm; sprayed on host plants before inoculation
[3] = system: Erysiphe graminis f. sp. tritici; test: In vivo fungicidal activity on host plants, Wheat Powdery Mildew (WPM); details: 400 ppm; sprayed on host plants before inoculation
Plasmopara viticola = test: In vivo fungicidal activity on host plants, Grape Downy Mildew (GDM); details: 400 ppm; sprayed on host plants before inoculation
[4] = system: Fusarium oxysporum f. sp. cucumerinum; test: In vitro fungicidal activity, growth inhibition of ground fungal mycelia (FUSOXC); assay type: cell-based; details: 25 ppm, 3-4 days at 21° C., averaged when more than one test, read-out: Growth inhibition rating, FUSOXC
Procedure: as §1, §2, §3

Row | Structure (SMILES) | Disease control rating, RB (Pyricularia oryzae) | Disease control rating, WLR [1] | inhibition at 25 ppm (Rhizoctonia solani) | Disease control rating, SBC (Cercospora beticola) | inhibition at 25 ppm (Pythium ultimum) | Disease control rating, PB (Botrytis cinerea) | inhibition at 25 ppm [2] | Disease control rating, AS (Venturia inaegualis) | Disease control rating, WPM [3] | Disease control rating, GDM (Plasmopara viticola) | inhibition at 25 ppm [4]
1 | N#Cc1c(-c2oc3ccccc3c2Cl)[nH]c(Cl)c1Cl [Compound 1, 4,5-Dichloro-2-(3-chloro-2-benzofuranyl)pyrrole-3-carbonitrile] | 4 (45-59) | 2 (15-29) | 1 to 29% | 0 (0) | 1 to 29% | 2 (15-29) | 1 to 29% | 0 (0) | 0 (0) | – | –
2 | N#Cc1cc(C(F)(F)F)[nH]c1-c1cccs1 [Compound 2, 2-(2-Thienyl)-5-(trifluoromethyl)pyrrole-3-carbonitrile] | 5 (60-74) | 9 (100) | – | 0 (0) | 100% | – | – | 9 (100) | 9 (100) | 9 (100) | –
3 | O=[N+]([O-])c1c(-c2ccc(Cl)cc2)[nH]c(C(F)(F)F)c1-c1csc(Br)c1 [Compound 8, 3-(5-Bromo-3-thienyl)-5-(p-chlorophenyl)-4-nitro-2-(trifluoromethyl)pyrrole] | 4 (45-59) | 7 (90-95) | 30 to 59% | – | 0% | 0 (0) | 0% | 8 (96-99) | 0 (0) | 9 (100) | 0%
4 | FC(F)(F)c1[nH]c(-c2ccc(Cl)cc2)cc1-c1ccco1 [Compound 4, 5-(p-Chlorophenyl)-3-(2-furyl)-2-(trifluoromethyl)pyrrole] | 1 (1-14) | 6 (75-89) | – | 0 (0) | 60 to 89% | 0 (0) | 100% | 2 (15-29) | 0 (0) | 8 (96-99) | –
5 | N#Cc1cc(-c2ccc(Cl)s2)[nH]c1Cl [Compound 6, 2-Chloro-5-(5-chloro-2-thienyl)pyrrole-3-carbonitrile] | 0 (0) | 6 (75-89) | 60 to 89% | 6 (75-89) | – | 0 (0) | 60 to 89% | 9 (100) | 0 (0) | 7 (90-95) | –
6 | FC(F)(F)c1[nH]c(-c2ccc(Cl)cc2)cc1-c1csc(Br)c1 [Compound 9, 3-(5-Bromo-3-thienyl)-5-(p-chlorophenyl)-2-(trifluoromethyl)pyrrole] | 0 (0) | 0 (0) | 60 to 89% | 0 (0) | 0% | 0 (0) | 0% | 0 (0) | 0 (0) | 6 (75-89) | 0%
7 | N#Cc1c(Cl)[nH]c(-c2ccc(Cl)s2)c1Br [Compound 7, 4-Bromo-2-chloro-5-(5-chloro-2-thienyl)pyrrole-3-carbonitrile] | 0 (0) | 7 (90-95) | 60 to 89% | 0 (0) | – | 0 (0) | – | 8 (96-99) | 0 (0) | 0 (0) | 0%
